The text below walks through data of patent publication US7335352B1, “Method of identifying agents that inhibit quorum sensing activity of gamma-proteobacteria” (priority 2003, dated 2008).

Each structure is given as a SMILES string. “Also recorded” adds a separate entry of the source. Read-outs that look alike come from different tables or passages of the source.

Experiment [1] relates to P. aeruginosa PAO1. It is filed as cell-based, Pseudomonas aeruginosa. Conditions: for Yield: substrate as energy source; for Use as sole source of energy or nitrogen: MES 5.5 media; for Utilization as an energy source: pH 5.5. How it is done:
(§1) Media and growth conditions. LB, amended with antibiotics when appropriate, was used for growth and maintenance of all strains unless otherwise stated. For the 3OC12HSL-dependent enrichment of strain PAI-A and other growth experiments performed on this strain, modified “MES 5.5” defined-medium was used to enrich and study Variovorax paradoxus VAI-C (21). These modifications to the medium included buffering with 5 mM 3-(N-morpholino)-propanesulfonic acid (MOPS) at pH 7.2 and the addition of sodium sulfate (14 g·liter^−1) and magnesium chloride (4 g·liter^−1). For growth experiments with P. aeruginosa, “MES 5.5” defined medium was used as described previously (21) with the exception that it contained sodium sulfate, not sulfite, as S-source, a typographical error in the reported recipe. Unless otherwise noted, the medium was buffered to a pH of 5.5 with 5 mM 2-(N-morpholino)-ethanesulfonic acid (MES). Ammonium-free “MES 5.5” basal medium was used to examine the utilization of AHLs and HSL as potential nitrogen sources. 100 mM stock solutions of AHLs were prepared by dissolving AHLs in ethyl acetate that had been acidified with glacial acetic acid (0.01% v/v), and stocks were stored at −20° C. AHLs used in these studies were: N-3-oxododecanoyl-L-homoserine lactone (3OC12HSL; Quorum Sciences Inc., Iowa City Iowa), N-3-oxohexanoyl-L-homoserine lactone (3OC6HSL; Sigma), and from Fluka: N-3-butanoyl-DL-homoserine lactone (C4HSL), N-3-hexanoyl-DL-homoserine lactone (C6HSL), N-3-heptanoyl-DL-homoserine lactone (C7HSL), N-3-octanoyl-DL-homoserine lactone (C8HSL), N-3-[…], N-3-dodecanoyl-DL-homoserine lactone (C12HSL), N-3-tetradecanoyl-DL-homoserine lactone (C14HSL). For growth experiments, the AHL was dispensed into sterile tubes, the ethyl acetate was removed by evaporation under a stream of sterile air, and sterile medium was added to the dried AHL that remained. Stocks of L-HSL (Sigma) were prepared just prior to their use from well-desiccated reagent stored at −20° C. […] Cells were grown in 5 ml of medium in 18-mm tubes with shaking at 37° C. unless otherwise noted. AHL molecules are stable for approximately 30 days under the conditions of low pH in our defined medium (9, 34). Unless noted, all other reagents were of reagent grade.
(§2) Growth studies. Optical density measurements were performed at 600 nm using a Spectronic 20 spectrophotometer. […] When care was taken to vortex tubes gently, the changes in optical density reflecting growth could be monitored accurately. Molar growth yields were determined in the defined media containing the indicated substrate at a final concentration of 1 or 2 mM. For both Pseudomonas PAI-A and P. aeruginosa PAO1, factors for converting optical density to cell dry mass were determined by growing cells in media containing succinate as the energy source and NH4Cl as the nitrogen source, washing the cells with 50 mM ammonium acetate buffer (pH 5.5), and drying cell samples to a constant weight. Such determinations were made in quadruplicate.

The test system of experiment [2] is Pseudomonas strain PAI-A. The experiment is classed as cell-based. As to the method: as §1, §2
The target in another experiment is T1, PvdQ AHL acylase (Pseudomonas aeruginosa, UniProt Q9I194).
T1 construct: The deduced coding region for PvdQ (Gene PA2385; www.pseudomonas.com) was amplified from the genomic DNA; expressed in transfected cells; host or cells: E. coli BL21PRO carrying pPvdQ-PROTet (pPROTet.E133-derived, aTc-inducible)
Put plainly: AHL degradation by resting E. coli cells expressing recombinant PvdQ (LC/APCI-MS). It is filed as cell-based, P. aeruginosa. The following applies: for HSL-releasing degradation by E. coli expressing recombinant PvdQ: resting cells OD600 1.2, MOPS pH 7.2, 18° C., 10 μM 3OC12HSL; for Product accumulation in PvdQ-expressing E. coli suspensions: incubated with 10 μM 3OC12HSL. The source says:
(§3) Analysis of cell-free culture and reaction fluids. […] Dilutions were made using “MES 5.5” medium.
Cloning and expression of pvdQ (PA2385) encoding a putative P. aeruginosa AHL acylase. Genomic DNA was isolated from P. aeruginosa PAO1 using the DNeasy™ tissue kit (QIAGEN) and used as a template for PCR. The deduced coding region for PvdQ (Gene PA2385; www.pseudomonas.com) was amplified from the genomic DNA using the following primers: 5′-[…]-3′ (SEQ ID NO:6) and 5′-[…]-3′ (SEQ ID NO:7; bold print indicates HindIII and NotI restriction sites, respectively), cloned into the appropriately digested expression vector, pPROTet.E133 (Clontech), and transformed into E. coli BL21PRO. Recombinant AHL acylase activity was examined as follows. After growth in LB medium containing spectinomycin (50 μg ml^−1) and chloramphenicol (34 μg ml^−1), and after gene induction by the addition of anhydrotetracycline (aTc, 100 ng ml^−1) at 18° C., cells were pelleted and resuspended to a final optical density of 1.2 in MOPS buffered media (pH 7.2) containing 10 μM 3OC12HSL. Recombinant cells that had not been induced with aTc were used as a negative control. Reaction mixtures were incubated at 18° C.; 150 μl samples were removed at 0, 15, 30, and 60 min and analyzed for AHL disappearance and product appearance via LC/APCI-MS (see above).

Another experiment deals with P. aeruginosa PA14. Put plainly: Growth of P. aeruginosa PA14 on 3OC12HSL as sole energy source. It is filed as cell-based, Pseudomonas aeruginosa. The following applies: defined ammonia-replete media, pH 5.5 and 7.2, naive cells after lag. How it is done:
Media and growth conditions. LB, amended with antibiotics when appropriate, was used for growth and maintenance of all strains unless otherwise stated. For the 3OC12HSL-dependent enrichment of strain PAI-A and other growth experiments performed on this strain, modified “MES 5.5” defined-medium was used to enrich and study Variovorax paradoxus VAI-C (21). These modifications to the medium included buffering with 5 mM 3-(N-morpholino)-propanesulfonic acid (MOPS) at pH 7.2 and the addition of sodium sulfate (14 g·liter^−1) and magnesium chloride (4 g·liter^−1). For growth experiments with P. aeruginosa, “MES 5.5” defined medium was used as described previously (21) with the exception that it contained sodium sulfate, not sulfite, as S-source, a typographical error in the reported recipe. Unless otherwise noted, the medium was buffered to a pH of 5.5 with 5 mM 2-(N-morpholino)-ethanesulfonic acid (MES). Ammonium-free “MES 5.5” basal medium was used to examine the utilization of AHLs and HSL as potential nitrogen sources. 100 mM stock solutions of AHLs were prepared by dissolving AHLs in ethyl acetate that had been acidified with glacial acetic acid (0.01% v/v), and stocks were stored at −20° C. […]

The subject of experiment [3] is P. aeruginosa PAO1. Conditions: dense PAO1 cell suspension; 25 mM C12HSL.
From the text: Analysis of cell-free culture and reaction fluids. For the initial characterization of the intermediates in AHL degradation, a TLC method was used (16).
Experiment [4] deals with Pseudomonas strain PAI-A. The experiment in a line: TLC of reaction fluids of dense PAI-A cell suspensions incubated with AHL. It is filed as cell-based. Conditions: dense PAI-A cell suspension; 25 mM C12HSL.
From the text: as §3

Setting [5] is: P. aeruginosa PAO1, minimal salts media pH 5.5.
Setting [6] is: strain PAI-A, minimal salts media pH 7.2.

T1 sequence (Q9I194 24-193): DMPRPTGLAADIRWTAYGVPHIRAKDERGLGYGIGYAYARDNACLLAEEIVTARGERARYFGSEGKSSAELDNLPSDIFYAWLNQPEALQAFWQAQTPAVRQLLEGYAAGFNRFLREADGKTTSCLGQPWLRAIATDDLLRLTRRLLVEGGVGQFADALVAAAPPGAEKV
T1 sequence (Q9I194 217-762): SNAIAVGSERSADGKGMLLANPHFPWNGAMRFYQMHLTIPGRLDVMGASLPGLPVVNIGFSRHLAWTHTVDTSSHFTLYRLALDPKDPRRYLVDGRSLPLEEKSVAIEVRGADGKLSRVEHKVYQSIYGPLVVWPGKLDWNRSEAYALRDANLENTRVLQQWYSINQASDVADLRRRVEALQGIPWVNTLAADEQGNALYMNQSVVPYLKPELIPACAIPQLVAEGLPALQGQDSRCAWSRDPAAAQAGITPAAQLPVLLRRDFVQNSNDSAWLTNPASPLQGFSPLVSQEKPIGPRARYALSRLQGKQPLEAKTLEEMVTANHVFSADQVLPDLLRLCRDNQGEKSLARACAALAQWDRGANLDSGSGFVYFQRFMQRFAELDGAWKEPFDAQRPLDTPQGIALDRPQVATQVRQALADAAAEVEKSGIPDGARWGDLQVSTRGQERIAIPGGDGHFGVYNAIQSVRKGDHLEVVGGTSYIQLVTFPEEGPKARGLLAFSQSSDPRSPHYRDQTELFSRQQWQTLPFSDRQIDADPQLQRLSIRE

For `CCCCCCCCCC(=O)O` [Decanoate], the Yield in the experiment on P. aeruginosa PAO1 [1] (setting [5]) is 130 ± 3 g/mol; in the experiment on Pseudomonas strain PAI-A [2] (setting [6]), 126 ± .5 g/mol.
In the case of `O=C(O)CCC(=O)O` [Succinate], the figures for the Doubling time in the experiment with P. aeruginosa PAO1 [1] (setting [5]), in the experiment with Pseudomonas strain PAI-A [2] and in the experiment on Pseudomonas strain PAI-A [2] (pH 7.2) were 0.6 ± .09 h, 0.583 h and 0.6 ± .02 h, respectively. The figures for the Yield in the experiment with P. aeruginosa PAO1 [1] (setting [5]) and in the experiment with Pseudomonas strain PAI-A [2] (pH 7.2) were 43 ± 3 g/mol and 49 ± 3.8 g/mol, respectively.
Take `CCCCCCCCCCCCCC(=O)O` [Tetradecanoate]: the Yield with P. aeruginosa PAO1 [1] (setting [5]) is 177 ± 16 g/mol; with Pseudomonas strain PAI-A [2] (setting [6]) it was 198 ± 3 g/mol.
For `CCCCCCCCCCCC(=O)O` [Dodecanoate], in that order: 141 ± 4 g/mol and 155 ± 8.4 g/mol.
Turning to `CCCCCCCCCCCCCC(=O)NC1CCOC1=O` (racemic) [C14-DL-HSL, N-3-tetradecanoyl-DL-homoserine lactone], the “HSL-releasing degradation by E. coli expressing recombinant PvdQ” value (shortened to “HSL-releasing degradation”) on PvdQ AHL acylase is reported as “catalyzed the HSL-releasing degradation”. For the same molecule, in the experiment on P. aeruginosa PAO1 [1] (setting [5]), the Doubling time stood at 21.0 ± 5.3 h and the Yield was 84 ± 12 g/mol. Besides, the “Yield (qualitative)” value in the experiment with Pseudomonas strain PAI-A [2] (setting [6]) is given as “+, ND^”.
Turning to `CCCCCCCCCC(=O)CC(=O)NC(CCO)C(=O)O` (centres unmarked) [3OC12-homoserine], the “Product accumulation in PvdQ-expressing E. coli suspensions” value on PvdQ AHL acylase is given as “No 3OC12-homoserine accumulation was observed”.
Turning to `CCn1cc(C(=O)O)c(=O)c2ccc(C)nc21` [nalidixate], the “Growth in media containing the agent” value in the experiment with Pseudomonas strain PAI-A [2] (PAI-A, 30 μg nalidixate·ml^−1) is listed as “did not grow”.
Consider `CCCCCCCCCC(=O)NC1CCOC1=O` (racemic) [C10-DL-HSL, N-3-decanoyl-DL-homoserine lactone], for which the “HSL-releasing degradation” value on PvdQ AHL acylase was “catalyzed the HSL-releasing degradation”. Moreover, in the experiment on P. aeruginosa PAO1 [1] (setting [5]), the Doubling time was 14.0 ± 3.8 h and the Yield was determined as 97 ± 3 g/mol. The “Yield (qualitative)” value in the experiment on Pseudomonas strain PAI-A [2] (setting [6]) is reported as “+, ND^”.
As for `N[C@H]1CCOC1=O` [HSL, homoserine lactone], the “Product accumulation in PvdQ-expressing E. coli suspensions” value at PvdQ AHL acylase is given as “accumulation of stoichiometric amounts”. In the experiment with P. aeruginosa PAO1 [1] (P. aeruginosa PAO1), the “Use as sole source of energy or nitrogen” value is on record as “did not use” and the “Utilization as an energy source” value is listed as “Neither strain PAI-A nor PAO1 used; also recorded: did not grow”. Moreover, the “Utilization as an energy source” value with Pseudomonas strain PAI-A [2] (strain PAI-A, pH 7.2) is “Neither strain PAI-A nor PAO1 used”.
`CCCC(=O)NC1CCOC1=O` (racemic) [C4HSL, N-3-butanoyl-DL-homoserine lactone]: the “Degradation of short chain AHL given as co-substrate” value in the experiment with P. aeruginosa PAO1 [1] (PAO-1, 1 mM C4HSL in 3OC12HSL-containing media) is “did not degrade detectable amounts”; with Pseudomonas strain PAI-A [2] (PAI-A, 1 mM C4HSL in 3OC12HSL-containing media), “did not degrade detectable amounts”.
`N[C@@H](CCO)C(=O)O` [homoserine]: in the experiment with P. aeruginosa PAO1 [1] (P. aeruginosa PAO1), the “Use as sole source of energy or nitrogen” value was “did not use” and the “Utilization as an energy source” value is given as “did not grow”.
`CCCCCCCCCC(=O)CC(=O)N[C@H]1CCOC1=O` [3OC12-L-HSL, N-3-oxododecanoyl-L-homoserine lactone]: the Doubling time in the experiment on P. aeruginosa PA14 was 11 to 25 days; in the experiment with P. aeruginosa PAO1 [1] (setting [5]), 25.0 ± 3 h; in the experiment with P. aeruginosa PAO1 [1] (PAO1, defined ammonia-replete media, pH 5.5 and 7.2, naive cells after lag), 264 to 600 h; in the experiment on Pseudomonas strain PAI-A [2] (setting [6]) it was 25.0 ± 3.5 h. Further, on PvdQ AHL acylase, the “HSL-releasing degradation” value is listed as “degraded 3OC12HSL; also recorded: Within an hour, the AHL disappeared”. Further, the Yield is 76 ± 10 g/mol in the experiment with P. aeruginosa PAO1 [1] (setting [5]) and 84 ± .2 g/mol with Pseudomonas strain PAI-A [2] (setting [6]).
As to `CCCCCCCC(=O)NC1CCOC1=O` (racemic) [C8-DL-HSL, N-3-octanoyl-DL-homoserine lactone], the “HSL-releasing degradation” value at PvdQ AHL acylase is on record as “catalyzed the HSL-releasing degradation”. Besides, in the experiment with P. aeruginosa PAO1 [1] (setting [5]), the Doubling time amounted to 15.0 ± 2 h and the Yield turned out to be 95 ± 4 g/mol. Also, in the experiment on Pseudomonas strain PAI-A [2] (setting [6]), the “Yield (qualitative)” value is given as “+, ND^b”.
In the case of `CCCCCCCCCCCC(=O)NC1CCOC1=O` (racemic) [C12-DL-HSL, N-3-dodecanoyl-DL-homoserine lactone], the “HSL-releasing degradation” value at PvdQ AHL acylase is “catalyzed the HSL-releasing degradation”. Further, the “AHL-dependent release of ninhydrin-reactive materials (HSL, homoserine) by TLC” value with P. aeruginosa PAO1 [3] and with Pseudomonas strain PAI-A [4] was “AHL-dependent release of ninhydrin-reactive materials” each time. The Doubling time is 14.9 ± 7.5 h in the experiment on P. aeruginosa PAO1 [1] (setting [5]) and 16.5 ± 3 h in the experiment with Pseudomonas strain PAI-A [2] (setting [6]). In addition, the results for the Yield in the experiment on P. aeruginosa PAO1 [1] (setting [5]) and with Pseudomonas strain PAI-A [2] (setting [6]) were 84 ± 7 g/mol and 80 ± 18 g/mol, respectively.
